The assay deals with PI3 kinase alpha (Homo sapiens, UniProt P42336). The assay is described as follows: PI3K ATP depletion assay (Biological Method 1, Assay 3; KinaseGlo luminescence). It is filed as biochemical. On the procedure:
The PI3 kinase alpha IC50 values shown in Table 1 were determined according to the ATP depletion assay as disclosed herein in Biological Method 1.
Assay 3: ATP Depletion Assay
Compounds to be tested are dissolved in DMSO and directly distributed into a black 384-well plate at 1.25 μL per well. To start the reaction, 25 μL of 10 nM PI3 kinase and 5 μg/mL 1-alpha-phosphatidylinositol (PI) are added into each well followed by 25 μL of 2 μM ATP. The reaction is performed until approx 50% of the ATP is depleted, and then stopped by the addition of 25 μL of KinaseGlo solution purchased from Promega. The stopped reaction is incubated for 5 minutes and the remaining ATP is then detected via luminescence.
(Kinase-Glo measures the ATP left after a reaction by luminescence.)

Setting [1] is: ATP depletion assay, Biological Method 1, read-out: PI3 Kinase Alpha, IC50.
[2] abbreviates: ATP depletion assay, read-out: PI3 Kinase Alpha, IC50.

Like-named read-outs stand apart in the source and are kept apart here.

Chain of PI3 kinase alpha (P42336 whole entry): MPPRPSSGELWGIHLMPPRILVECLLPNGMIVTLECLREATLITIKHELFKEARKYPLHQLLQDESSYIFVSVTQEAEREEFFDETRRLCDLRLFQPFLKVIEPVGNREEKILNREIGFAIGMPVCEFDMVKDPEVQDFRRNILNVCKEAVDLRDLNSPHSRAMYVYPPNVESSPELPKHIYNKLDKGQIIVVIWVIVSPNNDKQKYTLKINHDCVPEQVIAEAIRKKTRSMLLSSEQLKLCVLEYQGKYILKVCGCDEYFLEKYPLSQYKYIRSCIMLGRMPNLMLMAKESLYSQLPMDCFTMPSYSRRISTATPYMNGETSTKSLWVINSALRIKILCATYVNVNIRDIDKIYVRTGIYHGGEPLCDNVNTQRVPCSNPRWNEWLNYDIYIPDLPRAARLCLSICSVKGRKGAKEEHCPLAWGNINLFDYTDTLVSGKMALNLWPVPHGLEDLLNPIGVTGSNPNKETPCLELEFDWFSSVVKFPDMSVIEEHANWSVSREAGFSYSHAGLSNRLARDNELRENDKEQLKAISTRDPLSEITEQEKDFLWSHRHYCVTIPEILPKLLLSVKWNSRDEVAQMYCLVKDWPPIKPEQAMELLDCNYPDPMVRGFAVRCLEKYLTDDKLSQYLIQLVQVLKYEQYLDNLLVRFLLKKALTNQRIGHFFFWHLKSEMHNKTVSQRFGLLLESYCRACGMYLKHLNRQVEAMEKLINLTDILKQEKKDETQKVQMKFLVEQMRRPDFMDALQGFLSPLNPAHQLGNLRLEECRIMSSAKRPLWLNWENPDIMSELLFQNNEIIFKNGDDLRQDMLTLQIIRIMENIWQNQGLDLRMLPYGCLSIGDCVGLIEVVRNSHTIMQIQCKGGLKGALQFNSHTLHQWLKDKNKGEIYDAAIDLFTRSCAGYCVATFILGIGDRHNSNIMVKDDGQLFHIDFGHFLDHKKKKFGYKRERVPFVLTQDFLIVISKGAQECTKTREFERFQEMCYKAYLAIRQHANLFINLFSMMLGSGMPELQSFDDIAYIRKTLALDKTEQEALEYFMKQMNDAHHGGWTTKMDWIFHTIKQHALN
Chain of PI3 kinase alpha (P27986 whole entry partner): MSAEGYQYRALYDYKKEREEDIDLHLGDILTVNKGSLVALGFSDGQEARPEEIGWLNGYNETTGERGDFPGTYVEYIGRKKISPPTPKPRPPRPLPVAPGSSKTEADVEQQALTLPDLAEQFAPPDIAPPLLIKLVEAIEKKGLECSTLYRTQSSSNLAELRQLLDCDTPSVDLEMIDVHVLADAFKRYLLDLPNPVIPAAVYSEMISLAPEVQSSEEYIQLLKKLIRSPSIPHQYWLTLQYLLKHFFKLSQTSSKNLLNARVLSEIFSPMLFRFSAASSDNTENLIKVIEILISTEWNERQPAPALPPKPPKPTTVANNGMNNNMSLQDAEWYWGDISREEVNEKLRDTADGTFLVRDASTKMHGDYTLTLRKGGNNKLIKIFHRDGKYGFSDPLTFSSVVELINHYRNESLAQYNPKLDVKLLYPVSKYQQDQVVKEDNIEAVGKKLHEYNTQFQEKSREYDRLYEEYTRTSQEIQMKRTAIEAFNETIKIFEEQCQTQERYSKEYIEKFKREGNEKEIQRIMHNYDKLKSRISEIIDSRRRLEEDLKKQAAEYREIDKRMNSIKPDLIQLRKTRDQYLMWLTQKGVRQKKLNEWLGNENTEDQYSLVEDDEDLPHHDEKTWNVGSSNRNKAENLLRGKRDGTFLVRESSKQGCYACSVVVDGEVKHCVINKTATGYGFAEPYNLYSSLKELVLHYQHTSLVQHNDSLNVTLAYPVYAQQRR

As for `Nc1ncc(-c2cc(C(=O)O)nc(N3CCOCC3)n2)cn1` [Compound 236], the IC50 under setting [1] is less than 1000 nM. As for `NC(=O)c1cc(-c2cnc(N)nc2)nc(N2CCOCC2)n1` [Compound 229], the 50% inhibitory concentration (IC50) under setting [1] was less than 1000 nM. In the case of `Nc1cc(C(F)(F)F)c(-c2cc(Nc3cc(C(F)(F)F)ccn3)nc(N3CCOCC3)n2)cn1` [Compound 243], the 50% inhibitory concentration (IC50) under setting [1] is less than 1000 nM. For `CC(=O)Nc1cnc(N2CCOCC2)nc1-c1ccc(N)nc1` [Compound 257], under setting [1], the concentration for half-maximal inhibition (IC50) was less than 10000 nM. As for `Nc1cc(C(F)(F)F)c(-c2cc(N3CCOCC3c3ccccc3)nc(N3CCOCC3)n2)cn1` (centres unmarked) [Compound 486], the IC50 under setting [2] is less than 1000 nM. `COc1ccc(Nc2cc(-c3ccc(N)nc3)nc(N3CCOCC3)n2)cn1` [Compound 2]: under setting [2], the IC50 was less than 1000 nM. As for `Nc1ccc(-c2cc(NCc3ccncc3)nc(N3CCOCC3)n2)cn1` [Compound 443], the half-maximal inhibitory concentration (IC50) under setting [2] was less than 1000 nM. In the case of `Nc1ccc(-c2cc(Nc3cnccc3C(F)(F)F)nc(N3CCOCC3)n2)cn1` [Compound 385], the IC50 under setting [1] was less than 1000 nM. `Nc1ncc(-c2nc(N3CCOCC3)ncc2C(=O)NCC2CC2)cn1` [Compound 419]: under setting [2], the IC50 is less than 10000 nM. As for `CC(C)N1CCN(c2nc3ccccc3cc2-c2cc(-c3ccc(N)nc3)nc(N3CCOCC3)n2)CC1` [Compound 502], the IC50 under setting [2] is less than 10000 nM. Regarding `CC(=O)N1CCc2cccc(Nc3cc(-c4ccc(N)nc4)nc(N4CCOCC4)n3)c21` [Compound 354], the IC50 under setting [1] is less than 1000 nM. Regarding `Nc1cc(C(F)(F)F)c(-c2cc(OC3CCNCC3)nc(N3CCOCC3)n2)cn1` [Compound 459], under setting [2], the IC50 was less than 1000 nM. The same measure, in the same setting: next, `COCCNC(=O)c1cnc(N2CCOCC2)nc1-c1cnc(N)nc1` [Compound 424]: less than 10000 nM. `Nc1ncc(-c2nc(N3CCOCC3)ncc2C(=O)N2CCOCC2)cn1` [Compound 429]: the IC50 under setting [2] is less than 10000 nM.

Consider `COc1ccc(Nc2cc(-c3ccc(N)nc3)nc(N3CCOCC3)n2)cc1OC` [Compound 388], for which the IC50 under setting [1] is less than 1000 nM. For `Nc1ccc(-c2cc(Sc3ncc[nH]3)nc(N3CCOCC3)n2)cn1` [Compound 296], the IC50 under setting [1] is less than 10000 nM. Consider `Nc1ccc(-c2cc(Sc3nc[nH]n3)nc(N3CCOCC3)n2)cn1` [Compound 292], for which the IC50 under setting [1] was less than 10000 nM.

`CC(C)(C)OC(=O)N1CCC[C@@H](Oc2cc(-c3cnc(N)cc3C(F)(F)F)nc(N3CCOCC3)n2)C1` [Compound 21]: under setting [2], the IC50 is less than 1000 nM.

With `Nc1ccc(-c2cc(-c3cccnc3N3CCN(CCO)CC3)nc(N3CCOCC3)n2)cn1` [Compound 498], the IC50 under setting [2] is less than 10000 nM. Regarding `Nc1ncc(-c2cc(N[C@H]3CN4CCC3CC4)nc(N3CCOCC3)n2)cn1` [Compound 519], under setting [2], the IC50 was less than 1000 nM. `Nc1cc(C(F)(F)F)c(-c2cc(N3CCC(F)CC3)nc(N3CCOCC3)n2)cn1` [Compound 487]: the IC50 under setting [2] is less than 1000 nM.

For `Nc1ccc(-c2cc(N3CCNC(=O)C3)nc(N3CCOCC3)n2)cn1` [Compound 376], the IC50 under setting [1] was less than 10000 nM. Turning to `Nc1ccc(-c2cc(-c3c[nH]nn3)nc(N3CCOCC3)n2)cn1` [Compound 310], under setting [1], the IC50 was less than 1000 nM.

For the compound `Nc1ncc(-c2nc(N3CCOCC3)ncc2C(=O)NC2CCOCC2)cn1` [Compound 426], the IC50 under setting [2] was less than 10000 nM. Consider `Nc1ccc(-c2cc(-c3nnn[nH]3)nc(N3CCOCC3)n2)cn1` [Compound 309], for which the IC50 under setting [1] was less than 1000 nM. With `Nc1ccc(-c2cc(NCCc3ccccn3)nc(N3CCOCC3)n2)cn1` [Compound 433], the IC50 under setting [2] is less than 10000 nM. Same read-out and setting: with `CC(C)C(=O)N1CC[C@@H](Oc2cc(-c3cnc(N)cc3C(F)(F)F)nc(N3CCOCC3)n2)C1` [Compound 537] the figure was less than 1000 nM. In the case of `Cc1cc(-c2cc(Nc3cnc4ccccc4c3)nc(N3CCOCC3)n2)cnc1N` [Compound 365], under setting [1], the IC50 is less than 10000 nM. Regarding `CN(C)CCCCNc1cc(-c2cnc(N)nc2)nc(N2CCOCC2)n1` [Compound 517], the IC50 under setting [2] is less than 10000 nM.

`CN(C)CCNC(=O)c1cnc(N2CCOCC2)nc1-c1cnc(N)nc1` [Compound 420]: the IC50 under setting [2] is less than 10000 nM. Same read-out and setting: next, `Nc1ccc(-c2cc(NCCc3cccnc3)nc(N3CCOCC3)n2)cn1` [Compound 434]: less than 10000 nM; `Nc1cc(C(F)(F)F)c(-c2cc(N3CCOCC3c3ccc(F)cc3)nc(N3CCOCC3)n2)cn1` (centres unmarked) [Compound 485]: less than 1000 nM. With `Nc1ccc(-c2cc(-c3ccc(NCCN4CCCC4)nc3)nc(N3CCOCC3)n2)cn1` [Compound 506], under setting [2], the concentration for half-maximal inhibition (IC50) is less than 1000 nM. For the compound `Cc1nc(N)ncc1-c1cc(Cl)nc(N2CCOCC2)n1` [Compound 479], the IC50 under setting [2] was less than 1000 nM. Consider `CC(C)C(=O)N1CC[C@H](Oc2cc(-c3cnc(N)cc3C(F)(F)F)nc(N3CCOCC3)n2)C1` [Compound 533], for which the IC50 under setting [2] was less than 10000 nM. `Nc1ccc(-c2cc(N3CCOC(C(=O)O)C3)nc(N3CCOCC3)n2)cn1` (centres unmarked) [Compound 339]: under setting [1], the IC50 is less than 10000 nM. With `Nc1ccc(-c2cc(N3CCCc4ccccc43)nc(N3CCOCC3)n2)cn1` [Compound 382], the IC50 under setting [1] was less than 1000 nM.

For the compound `CS(=O)(=O)c1cccc(-c2cc(-c3cnc(N)cc3-c3nn[nH]n3)nc(N3CCOCC3)n2)c1` [Compound 414], under setting [2], the IC50 was less than 1000 nM. For `Nc1ncc(-c2cc(N[C@H]3CCCC[C@@H]3OCc3ccccc3)nc(N3CCOCC3)n2)cn1` [Compound 395], the IC50 under setting [1] is less than 1000 nM. For the compound `CN(C)c1cc(-c2ccc(N)nc2)nc(N2CCOCC2)n1` [Compound 370], the IC50 under setting [1] was less than 10000 nM.

Turning to `Nc1ccc(-c2cc(N3CCOC(c4cccnc4)C3)nc(N3CCOCC3)n2)cn1` (centres unmarked) [Compound 340], the IC50 under setting [1] was less than 1000 nM. `Nc1ncc(-c2cc(Nc3cnc4ccccc4c3)nc(N3CCOCC3)n2)c(OCCN2CCNCC2)n1` [Compound 272]: the IC50 under setting [1] was less than 1000 nM. Turning to `Nc1ncc(-c2nc(N3CCOCC3)ncc2C(=O)O)cn1` [Compound 430], the IC50 under setting [2] was less than 10000 nM. Consider `Nc1ncc(-c2cc(N3CCC(C(F)(F)F)CC3)nc(N3CCOCC3)n2)cn1` [Compound 391], for which the IC50 under setting [1] is less than 1000 nM. `Nc1cc(C(F)(F)F)c(-c2cc(Nc3ccc(NCC(=O)O)nc3)nc(N3CCOCC3)n2)cn1` [Compound 490]: the half-inhibitory concentration (IC50) under setting [2] was less than 1000 nM. On to `Nc1ccc(-c2cc(NC3CCCCC3)nc(N3CCOCC3)n2)cn1` [Compound 373], for which the 50% inhibitory concentration (IC50) under setting [1] is less than 10000 nM.

Take `Nc1ncc(-c2cc(N[C@@H]3CCCC[C@H]3OCc3ccccc3)nc(N3CCOCC3)n2)cn1` [Compound 397]: under setting [1], the IC50 is less than 1000 nM. As for `Nc1ccc(-c2ccnc(N3CCOCC3)n2)cn1` [Compound 513], the 50% inhibitory concentration (IC50) under setting [2] is less than 1000 nM. `Nc1ccc(-c2cc(Nc3cc4ccccc4nc3OCCN3CCCC3)nc(N3CCOCC3)n2)cn1` [Compound 286]: under setting [1], the IC50 was less than 10000 nM. With `CC(=O)N1CC[C@@H](Oc2cc(-c3cnc(N)cc3C(F)(F)F)nc(N3CCOCC3)n2)C1` [Compound 23], the IC50 under setting [2] is less than 1000 nM. Regarding `Nc1ncc(-c2nc(N3CCOCC3)ncc2C(=O)N2CCCC2)cn1` [Compound 425], under setting [2], the IC50 was less than 10000 nM.

Take `Nc1ccc(-c2cc(NCCc3ccncc3)nc(N3CCOCC3)n2)cn1` [Compound 435]: under setting [2], the IC50 was less than 10000 nM. Regarding `Nc1cc(C(F)(F)F)c(-c2cc(O[C@@H]3CCN(C(=O)OCc4ccccc4)C3)nc(N3CCOCC3)n2)cn1` [Compound 535], under setting [2], the IC50 was less than 1000 nM. Regarding `Nc1ccc(-c2cc(NCc3cccnc3)nc(N3CCOCC3)n2)cn1` [Compound 445], the IC50 under setting [2] is less than 1000 nM. As to `CC(=O)Nc1cnc(N2CCOCC2)nc1-c1cnc(N)nc1` [Compound 256], the IC50 under setting [1] is less than 1000 nM. For the compound `CN(C)c1ncccc1-c1cc(-c2ccc(N)nc2)nc(N2CCOCC2)n1` [Compound 504], the IC50 under setting [2] is less than 10000 nM. On to `CC(=O)NCCNC(=O)c1cnc(N2CCOCC2)nc1-c1cnc(N)nc1` [Compound 423], for which, under setting [2], the IC50 is less than 10000 nM. Consider `Nc1ccc(-c2cc(C(F)(F)F)nc(N3CCOCC3)n2)cn1` [Compound 471], for which, under setting [2], the IC50 was less than 1000 nM. Same read-out and setting: next, `Nc1cc(C(F)(F)F)c(-c2cc(O[C@@H]3CCN(C(=O)c4ccccc4)C3)nc(N3CCOCC3)n2)cn1` [Compound 536]: less than 1000 nM.

Turning to `Cc1c(Nc2cnc3ccccc3c2)nc(N2CCOCC2)nc1-c1cnc(N)cc1C(F)(F)F` [Compound 469], the IC50 is less than 1000 nM. `Nc1cc(C(F)(F)F)c(-c2cc(N3CCN(c4ccccc4)C(=O)C3)nc(N3CCOCC3)n2)cn1` [Compound 416]: the IC50 under setting [2] was less than 1000 nM.

As for `CC(C)OC(=O)N1CC[C@@H](Oc2cc(-c3cnc(N)cc3C(F)(F)F)nc(N3CCOCC3)n2)C1` [Compound 538], the IC50 under setting [2] is less than 1000 nM.

`Nc1ccc(-c2cc(NCc3ccccn3)nc(N3CCOCC3)n2)cn1` [Compound 444]: the IC50 under setting [2] was less than 1000 nM. As for `Nc1cc(C(F)(F)F)c(-c2cc(CNC(=O)OC3CCOC3)nc(N3CCOCC3)n2)cn1` (centres unmarked) [Compound 542], the IC50 under setting [2] was less than 1000 nM. On to `CN1CCC(Oc2ncccc2-c2cc(-c3ccc(N)nc3)nc(N3CCOCC3)n2)C1` (centres unmarked) [Compound 288], for which, under setting [1], the IC50 was less than 10000 nM. With `Nc1ccc(-c2cc(Nc3cnc4ccc(OC(F)(F)F)cc4c3)nc(N3CCOCC3)n2)cn1` [Compound 496], the IC50 under setting [2] was less than 1000 nM. As for `Nc1ncc(-c2cc(O[C@@H]3CCCN(C(=O)c4ccc(F)cc4)C3)nc(N3CCOCC3)n2)c(N)n1` [Compound 525], the IC50 under setting [2] was less than 1000 nM. On to `Nc1ccc(-c2cc(N3CCc4ccccc4C3)nc(N3CCOCC3)n2)cn1` [Compound 375], for which the IC50 under setting [1] is less than 1000 nM. On to `Nc1ccc(-c2cc(Nc3ccccc3C(F)(F)F)nc(N3CCOCC3)n2)cn1` [Compound 379], for which the IC50 under setting [1] was less than 1000 nM. Consider `N#Cc1cc(-c2cc(Nc3cnc4ccccc4c3)nc(N3CCOCC3)n2)cnc1N` [Compound 366], for which the IC50 under setting [1] was less than 10000 nM. `CS(=O)(=O)Nc1cc(-c2ccc(N)nc2)nc(N2CCOCC2)n1` [Compound 510]: the IC50 under setting [2] was less than 10000 nM.

What is called IC50 is the concentration that gives 50% inhibition.
